According to patent US9662059B2, “Imaging agents for monitoring changes of dopamine receptors and methods of using thereof” (The Regents of the University of California, priority 2007, dated 2017):
“Also recorded” adds a separate entry of the source.

How the values were obtained:
D2R [1] = biological target: T1, D2R (Rattus norvegicus, UniProt P61169); test: in vitro autoradiography of ^18F-fallypride binding in rat pancreas sections; design: from tissue; host or cells: rat pancreas, 10 μm cryosections
Protocol: Male Sprague-Dawley rats (200-250 g) or male Lewis rats (100-150 g) were anesthetized and decapitated. The brain and pancreas was rapidly removed and frozen in isopentane at −20° C. […] Slices were stored at −20° C. Slices were preincubated for 10 minutes in 50 mM Tris-HCl, 120 mM NaCl, 5 mM KCl buffer (pH 7.4). Slices were then incubated with 1-2 μCi/cc of ^18F-fallypride at 37° C. for 1 hour. […] After incubation, slices were rinsed twice for 2 min in ice-cold buffer, dipped briefly in ice-cold water, blown dry and laid out for autoradiography. Slides with tissue samples were exposed to a multipurpose storage phosphor screen for 24 hours and developed; the autoradiographs were generated using the Phosphor Cyclone Imager (Packard Instruments Co.) The amount of binding in the pancreas was measured as digital light units, DLU/mm^2. Autoradiographs were quantified using a computer-based image analysis system (OptiQuant Version 4.0 Packard Instruments Co., Boston Mass.).

D2R [2] = biological target: T1, D2R; test: ex vivo autoradiography of brain and pancreas after intravenous ^18F-fallypride; assay type: in vivo, Lewis rats; design: The brain and pancreas were isolated and sectioned to 10 μm and 40 μm sections; from tissue; host or cells: brain (striata, cerebellum) and pancreas of living Lewis rats
Protocol: For ex vivo studies, Lewis rats were anesthetized with halothane and injected intravenously with ^18F-fallypride (0.1 to 0.2 mCi). The rats were then sacrificed at either 60 or 120 min post-injection. The brain and pancreas were isolated and sectioned to 10 μm and 40 μm sections. Slides with tissue samples were exposed to a multipurpose storage phosphor screen for 24 hours and developed; the autoradiographs were generated using the Phosphor Cyclone Imager (Packard Instruments Co.). Brain slices contained the striata, cerebellum and other regions known to contain D2R. The amount of binding to the striata, cerebellum and pancreas was measured as digital light units, DLU/mm^2. Autoradiographs were quantified using a computer-based image analysis system (OptiQuant Version 4.0 Packard Instruments Co., Boston Mass.).

dopamine D2/D3 receptors = test: human PET/CT imaging with ^18F-fallypride, standard uptake values in organs; assay type: in vivo; settings: normal human subject
Protocol: The subjects were prepared by intravenous administration of ^18F-fallypride. After 80 minutes, the subjects were then positioned in the Siemen's PET/CT Biograph. The subjects were requested to lay still during the PET/CT data acquisition in the dimly lit quiet room but were free to open/shut their eyes. Static scans of 10 mins duration each were acquired at different bed positions.
The reconstructed dynamic PET data sets were first realigned to a reference summed image (50-80 minutes) to correct for patient motion and slight differences in positioning between the dynamic scans. These dynamic data sets were then used to create time-activity curves as well as pixel-by-pixel parametric images of the distribution volume ratio (DVR). The cerebellum (cerebellar lobes) was chosen as the reference region, having a minimal amount of specific binding to dopaminergic sites. The PET/CT data was analyzed to provide standard uptake values (SUV) in different organs which were identified using the CT image.

D2/D3 receptors = settings: cited from earlier work
D2R [3] = biological target: T1, D2R; test: ^18F-fallypride binding to pancreatic and brain sections of control and streptozotocin-treated rats; design: from tissue; host or cells: pancreas, striatum and cerebellum sections of male Sprague-Dawley rats; species or system male Sprague-Dawley rats
Protocol: Male Sprague-Dawley rats were used to develop a model for diabetes. Streptozotocin (STZ) (80 mg/kg body weight, i.p. injection) chemically destroyed beta-cells and induced diabetes in adult male Sprague-Dawley rats (Lai et al., Am J Physiol Endocrinol Metab 2007 292:E292). Blood glucose was monitored by tail vein-sampling. Diabetic rats were harvested 7 days after the onset of diabetes. ^18F-fallypride binding to pancreatic and brain sections was done for three pairs of STZ- and age-matched rats. […] Specific binding was determined for each animal by subtracting nonspecific binding, measured in digital light units per mm^2 (DLU/mm^2), from total binding for adjacent tissue sections in brain and pancreas.

[4] = arterial blood plasma at 3 hr; cited from earlier work
D2R [5] = biological target: T2, D2R (Homo sapiens, UniProt P14416); test: human PET imaging of the pancreas region with whole body HR+ PET scanner; assay type: in vivo; settings: healthy volunteer, 80 mins post injection
T2 construct: from tissue; host or cells: pancreas region of a healthy human volunteer, in vivo
Protocol: The subjects were prepared by placing one intravenous catheter in one arm for administration of the ^18F-fallypride. The subjects were then positioned in the PET scanner, and their alignment was marked for purposes of repositioning. The subjects were requested to lay still during the PET data acquisition in the dimly lit quiet room but were free to open/shut their eyes. The PET data was acquired with an EXACT HR+ PET scanner (in-plane FWHM=4.6 mm, axial FWHM=3.5 mm, axial FOV=15.52 cm). A 5-minute transmission scan using ^68Ge/^68Ga rod sources was acquired prior to administration of the radiopharmaceutical. Scanning was initiated with a 30-second bolus infusion of the radiopharmaceutical followed by a saline flush. A ^18F-fallypride dose of approximately 0.07 mCi/kg was administered to each of the subjects (subjects weight ranged between 70 to 95 kg). The dynamic scanning sequence consisted of 6 frames at 30 seconds, 7 frames at 1 minute, 5 frames at 2 minutes, 4 frames at 5 minutes and 4 frames at 10 minutes. The subject was marked for repositioning and then removed from the scanner for a 20-minute break period. A second dynamic sequence with 8 frames at 10 minutes each was acquired, yielding a total study time of approximately 3 hours. The data set was reconstructed using the ECAT v 7.2 software, with an OSEM algorithm (3 iterations, 16 subsets). […]

[6] = rat killed at 60 min post-injection

T1 sequence (P61169 whole entry): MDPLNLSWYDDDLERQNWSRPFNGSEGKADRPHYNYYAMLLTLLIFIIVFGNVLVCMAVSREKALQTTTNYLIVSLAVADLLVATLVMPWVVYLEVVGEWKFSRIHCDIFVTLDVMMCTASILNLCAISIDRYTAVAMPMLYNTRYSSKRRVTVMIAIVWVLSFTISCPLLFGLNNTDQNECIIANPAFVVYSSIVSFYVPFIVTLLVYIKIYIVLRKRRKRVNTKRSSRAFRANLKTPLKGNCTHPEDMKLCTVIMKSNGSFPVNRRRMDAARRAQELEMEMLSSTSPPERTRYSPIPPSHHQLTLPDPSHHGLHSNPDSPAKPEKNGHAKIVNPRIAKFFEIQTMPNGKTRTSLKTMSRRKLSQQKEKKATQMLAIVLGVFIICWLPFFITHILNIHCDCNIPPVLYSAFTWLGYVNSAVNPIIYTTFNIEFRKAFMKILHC
T2 sequence (P14416 whole entry): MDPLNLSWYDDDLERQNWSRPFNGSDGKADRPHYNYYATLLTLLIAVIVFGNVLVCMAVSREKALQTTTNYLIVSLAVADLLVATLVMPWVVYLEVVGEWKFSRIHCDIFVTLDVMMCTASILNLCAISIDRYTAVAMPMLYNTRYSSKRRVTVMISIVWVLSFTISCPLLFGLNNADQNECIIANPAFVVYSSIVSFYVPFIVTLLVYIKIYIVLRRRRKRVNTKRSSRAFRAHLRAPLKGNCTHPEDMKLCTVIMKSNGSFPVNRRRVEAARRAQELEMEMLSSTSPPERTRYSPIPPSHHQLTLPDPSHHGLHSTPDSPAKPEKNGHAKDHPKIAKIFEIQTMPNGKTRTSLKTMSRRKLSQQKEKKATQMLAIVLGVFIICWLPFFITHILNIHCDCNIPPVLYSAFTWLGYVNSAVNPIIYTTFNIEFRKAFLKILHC

NCCc1ccc(O)c(O)c1 [Dopamine]
displacement of ^18F-fallypride binding to the pancreas (D2R [1]; rat pancreatic sections, competitor 100 μM): does not displace; also recorded: did not displace

C=CCN1CCC[C@H]1CNC(=O)c1cc(CCC[18F])cc(OC)c1OC [^18F-fallypride]
binding in the pancreas (D2R [2]; Rat #2 killed at 120 min): significant amount of binding
Ratio of pancreas to cerebellum (D2R [2]; [6]): 5.3
Ratio of striatum to cerebellum (D2R [2]; [6]): 55.3
Ratio Organ/Ant Abd muscle, Pancreas- Body (dopamine D2/D3 receptors): 2.83
Ratio Organ/Ant Abd muscle, Pancreas- Head (dopamine D2/D3 receptors): 2.73
Ratio Organ/Ant Abd muscle, Pancreas- Tail (dopamine D2/D3 receptors): 3.10
SUV, Anterior Abdominal Muscle (dopamine D2/D3 receptors): 0.6
SUV, Gall bladder (dopamine D2/D3 receptors): 123
SUV, Kidney (dopamine D2/D3 receptors): 2.2
SUV, Liver (dopamine D2/D3 receptors): 5.0
SUV, Liver left lobe (dopamine D2/D3 receptors): 4.9
SUV, Liver right lobe (dopamine D2/D3 receptors): 5.1
SUV, Lung (dopamine D2/D3 receptors): 1.1
SUV, Pancreas- Body (dopamine D2/D3 receptors): 1.7
SUV, Pancreas- Head (dopamine D2/D3 receptors): 1.64
SUV, Pancreas- Tail (dopamine D2/D3 receptors): 1.86
SUV, Psoas Muscle (dopamine D2/D3 receptors): 0.9
SUV, Spine (bone marrow) (dopamine D2/D3 receptors): 2.8
SUV, Spleen (dopamine D2/D3 receptors): 1.5
decrease in binding with aging, all brain regions (D2/D3 receptors; human brain): > 10 % per decade
BP, orbitofrontal cortex (D2/D3 receptors; younger subject): 0.4
BP, putamen (D2/D3 receptors; younger subject): 37
^18F-Fallypride binding, Cerebellum (D2R [3]; Control rats): 1597 ± 1382 DLU/mm^2
^18F-Fallypride binding, Pancreas (D2R [3]; Control rats): 1393 ± 479 DLU/mm^2
^18F-Fallypride binding, Striatum (D2R [3]; Control rats): 121,167 ± 41,190 DLU/mm^2
change in ^18F-fallypride binding to control tissues striatum and cerebellum (D2R [3]; STZ-treated rats vs control): no change
reduction of specific ^18F-fallypride binding in the pancreas (D2R [3]; STZ-treated rats vs control, p<0.05): ~70%
^18F-Fallypride binding, Cerebellum (D2R [3]; Streptozotocin-treated rats): 1119 ± 632 DLU/mm^2
^18F-Fallypride binding, Striatum (D2R [3]; Streptozotocin-treated rats): 112,059 ± 35,271 DLU/mm^2
^18F-Fallypride binding, Pancreas (D2R [3]; Streptozotocin-treated rats, p < 0.05): 310 ± 303 DLU/mm^2
^18F-fallypride binding to rat pancreatic sections (D2R [1]; 10 μm sections, 37° C., 1 hour): binds to rat pancreatic sections
plasma radioactivity that was ^18F-fallypride [4]: 30-40%
Uptake of ^18F-fallypride in the human pancreas (D2R [5]): comparable with that in the brain
